The values that follow are results of earlier work, collected in patent US20140107523A1, “MODEL FOR TRAUMATIC BRAIN INJURY” (University of Rochester, priority 2012, published 2014).

This data set deals with NMDA receptor. Particulars: rats treated with the NMDA receptor blocker; spatial learning.

`N[C@@H](CCCP(=O)(O)O)C(=O)O` [APV]: the “performance in the Morris water maze” value is “perform poorly”.
